Data reported in the supplement of paper PMC10307832.

Experiments:
Assay in all cases: relative viability (nuclei count vs DMSO), 5 days (fraction); higher = more cells survive
[1] = test system: NCI-H1650
Summary of the method: (§1)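 The day after seeding in 1536-well plates, lung cancer cell lines were treated by pin tool with a single drug, or with a fixed anchor-drug dose together with five library-drug doses (not always all listed) in √10 steps. After 5 days, a combined fix-and-stain solution (final 0.05% Triton X-100, 1% formaldehyde, 1 ug/ml Hoechst) was added. Nuclei counted on 4× images gave relative viability as treated counts over vehicle counts, reported as the median of duplicate plates.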

[2] = test system: NCI-H23
Summary of the method: as §1

[3] = test system: COR-L23
Summary of the method: as §1

[4] = test system: 201T
Summary of the method: as §1

[5] = test system: LU99A
Summary of the method: as §1

[6] = test system: NCI-H838
Summary of the method: as §1

[7] = test system: NCI-H2347
Summary of the method: as §1

[8] = test system: A-427
Summary of the method: as §1

[9] = test system: H3255
Summary of the method: as §1

[10] = test system: PC-3 [JPC-3]
Summary of the method: as §1

[11] = test system: SW 1573
Summary of the method: as §1

[12] = test system: NCI-H460
Summary of the method: as §1

[13] = test system: LCLC-103H
Summary of the method: as §1

[14] = test system: LCLC-97TM1
Summary of the method: as §1

[15] = test system: NCI-H727
Summary of the method: as §1

[16] = test system: HCC-44
Summary of the method: as §1

[17] = test system: NCI-H650
Summary of the method: as §1

[18] = test system: PC-14
Summary of the method: as §1

[19] = test system: NCI-H1563
Summary of the method: as §1

O=C(O)c1ccc(-c2c[nH]c3ncc(-c4ccccc4)cc23)cc1C1CCCC1 + CC(C)C[C@H](NC(=O)[C@H](Cc1ccccc1)NC(=O)c1cnccn1)B(O)O [Bortezomib] (partner 0.002 µM)
relative viability ([1]; first compound 0.04 µM): 0.185
relative viability ([1]; first compound 0.1265 µM): 0.208
relative viability ([1]; first compound 0.4 µM): 0.205
relative viability ([1]; first compound 1.265 µM): 0.178
relative viability ([2]; first compound 0.04 µM): 1.05
relative viability ([2]; first compound 0.1265 µM): 1.21
relative viability ([2]; first compound 0.4 µM): 0.958
relative viability ([2]; first compound 1.265 µM): 1.11
relative viability ([3]; first compound 0.04 µM): 0.962
relative viability ([3]; first compound 0.1265 µM): 1.16
relative viability ([3]; first compound 0.4 µM): 0.906
relative viability ([3]; first compound 1.265 µM): 0.622
relative viability ([4]; first compound 0.04 µM): 1.08
relative viability ([4]; first compound 0.1265 µM): 1.08
relative viability ([4]; first compound 0.4 µM): 1.12
relative viability ([4]; first compound 1.265 µM): 1.02
relative viability ([5]; first compound 0.04 µM): 1.19
relative viability ([5]; first compound 0.1265 µM): 1.08
relative viability ([5]; first compound 0.4 µM): 1.06
relative viability ([5]; first compound 1.265 µM): 0.816
relative viability ([6]; first compound 0.04 µM): 0.814
relative viability ([6]; first compound 0.1265 µM): 1.32
relative viability ([6]; first compound 0.4 µM): 0.703
relative viability ([6]; first compound 1.265 µM): 0.714
relative viability ([7]; first compound 0.04 µM): 1.03
relative viability ([7]; first compound 0.1265 µM): 1.32
relative viability ([7]; first compound 0.4 µM): 0.869
relative viability ([7]; first compound 1.265 µM): 1.05
relative viability ([8]; first compound 0.04 µM): 0.947
relative viability ([8]; first compound 0.1265 µM): 0.949
relative viability ([8]; first compound 0.4 µM): 1.07
relative viability ([8]; first compound 1.265 µM): 0.849
relative viability ([9]; first compound 0.04 µM): 1.12
relative viability ([9]; first compound 0.1265 µM): 0.972
relative viability ([9]; first compound 0.4 µM): 0.833
relative viability ([9]; first compound 1.265 µM): 0.732
relative viability ([10]; first compound 0.04 µM): 0.832
relative viability ([10]; first compound 0.1265 µM): 0.921
relative viability ([10]; first compound 0.4 µM): 0.9
relative viability ([10]; first compound 1.265 µM): 0.759
relative viability ([11]; first compound 0.04 µM): 1.11
relative viability ([11]; first compound 0.1265 µM): 1.09
relative viability ([11]; first compound 0.4 µM): 0.99
relative viability ([11]; first compound 1.265 µM): 0.722
relative viability ([12]; first compound 0.04 µM): 1.07
relative viability ([12]; first compound 0.1265 µM): 1.4
relative viability ([12]; first compound 0.4 µM): 0.999
relative viability ([12]; first compound 1.265 µM): 0.939
relative viability ([13]; first compound 0.04 µM): 1.11
relative viability ([13]; first compound 0.1265 µM): 1.15
relative viability ([13]; first compound 0.4 µM): 1
relative viability ([13]; first compound 1.265 µM): 1.05
relative viability ([14]; first compound 0.04 µM): 0.835
relative viability ([14]; first compound 0.1265 µM): 1.03
relative viability ([14]; first compound 0.4 µM): 0.763
relative viability ([14]; first compound 1.265 µM): 0.403
relative viability ([15]; first compound 0.04 µM): 0.788
relative viability ([15]; first compound 0.1265 µM): 0.99
relative viability ([15]; first compound 0.4 µM): 0.906
relative viability ([15]; first compound 1.265 µM): 0.783
relative viability ([16]; first compound 0.04 µM): 0.945
relative viability ([16]; first compound 0.1265 µM): 0.866
relative viability ([16]; first compound 0.4 µM): 0.886
relative viability ([16]; first compound 1.265 µM): 0.908
relative viability ([17]; first compound 0.04 µM): 0.746
relative viability ([17]; first compound 0.1265 µM): 0.895
relative viability ([17]; first compound 0.4 µM): 0.858
relative viability ([17]; first compound 1.265 µM): 0.5
relative viability ([18]; first compound 0.04 µM): 0.917
relative viability ([18]; first compound 0.1265 µM): 0.901
relative viability ([18]; first compound 0.4 µM): 0.891
relative viability ([18]; first compound 1.265 µM): 0.758
relative viability ([19]; first compound 0.04 µM): 0.832
relative viability ([19]; first compound 0.1265 µM): 0.869
relative viability ([19]; first compound 0.4 µM): 0.907
relative viability ([19]; first compound 1.265 µM): 0.931

NC(=O)Nc1cc(-c2cccc(F)c2)sc1C(=O)N[C@H]1CCCNC1 [AZD7762] + CC(C)C[C@H](NC(=O)[C@H](Cc1ccccc1)NC(=O)c1cnccn1)B(O)O [Bortezomib] (partner 0.002 µM)
relative viability ([1]; first compound 0.01 µM): 0.217
relative viability ([1]; first compound 0.03162 µM): 0.205
relative viability ([1]; first compound 0.1 µM): 0.211
relative viability ([1]; first compound 0.3162 µM): 0.203
relative viability ([1]; first compound 1 µM): 0.204
relative viability ([2]; first compound 0.01 µM): 1.26
relative viability ([2]; first compound 0.03162 µM): 0.986
relative viability ([2]; first compound 0.1 µM): 0.742
relative viability ([2]; first compound 0.3162 µM): 0.597
relative viability ([2]; first compound 1 µM): 0.284
relative viability ([3]; first compound 0.01 µM): 1.12
relative viability ([3]; first compound 0.03162 µM): 0.981
relative viability ([3]; first compound 0.1 µM): 0.985
relative viability ([3]; first compound 0.3162 µM): 0.905
relative viability ([3]; first compound 1 µM): 0.229
relative viability ([4]; first compound 0.01 µM): 1.09
relative viability ([4]; first compound 0.03162 µM): 1.12
relative viability ([4]; first compound 0.1 µM): 1.12
relative viability ([4]; first compound 0.3162 µM): 1.12
relative viability ([4]; first compound 1 µM): 1.19
relative viability ([5]; first compound 0.01 µM): 1.09
relative viability ([5]; first compound 0.03162 µM): 1.24
relative viability ([5]; first compound 0.1 µM): 1.25
relative viability ([5]; first compound 0.3162 µM): 0.867
relative viability ([5]; first compound 1 µM): 0.402
relative viability ([6]; first compound 0.01 µM): 0.773
relative viability ([6]; first compound 0.03162 µM): 0.814
relative viability ([6]; first compound 0.1 µM): 0.715
relative viability ([6]; first compound 0.3162 µM): 0.724
relative viability ([6]; first compound 1 µM): 0.303
relative viability ([7]; first compound 0.01 µM): 1.1
relative viability ([7]; first compound 0.03162 µM): 0.967
relative viability ([7]; first compound 0.1 µM): 0.863
relative viability ([7]; first compound 0.3162 µM): 1.17
relative viability ([7]; first compound 1 µM): 0.685
relative viability ([8]; first compound 0.01 µM): 0.988
relative viability ([8]; first compound 0.03162 µM): 0.965
relative viability ([8]; first compound 0.1 µM): 0.989
relative viability ([8]; first compound 0.3162 µM): 1.04
relative viability ([8]; first compound 1 µM): 0.272
relative viability ([9]; first compound 0.01 µM): 0.818
relative viability ([9]; first compound 0.03162 µM): 0.852
relative viability ([9]; first compound 0.1 µM): 0.734
relative viability ([9]; first compound 0.3162 µM): 0.609
relative viability ([9]; first compound 1 µM): 0.59
relative viability ([10]; first compound 0.01 µM): 0.886
relative viability ([10]; first compound 0.03162 µM): 0.88
relative viability ([10]; first compound 0.1 µM): 0.829
relative viability ([10]; first compound 0.3162 µM): 0.883
relative viability ([10]; first compound 1 µM): 0.785
relative viability ([11]; first compound 0.01 µM): 1.12
relative viability ([11]; first compound 0.03162 µM): 1.4
relative viability ([11]; first compound 0.1 µM): 1.21
relative viability ([11]; first compound 0.3162 µM): 1.22
relative viability ([11]; first compound 1 µM): 0.771
relative viability ([12]; first compound 0.01 µM): 1.18
relative viability ([12]; first compound 0.03162 µM): 1.04
relative viability ([12]; first compound 0.1 µM): 1.18
relative viability ([12]; first compound 0.3162 µM): 0.88
relative viability ([12]; first compound 1 µM): 0.0988
relative viability ([13]; first compound 0.01 µM): 1.19
relative viability ([13]; first compound 0.03162 µM): 1.08
relative viability ([13]; first compound 0.1 µM): 1.25
relative viability ([13]; first compound 0.3162 µM): 0.95
relative viability ([13]; first compound 1 µM): 0.867
relative viability ([14]; first compound 0.01 µM): 0.767
relative viability ([14]; first compound 0.03162 µM): 0.822
relative viability ([14]; first compound 0.1 µM): 0.737
relative viability ([14]; first compound 0.3162 µM): 0.335
relative viability ([14]; first compound 1 µM): 0.634
relative viability ([15]; first compound 0.01 µM): 1.04
relative viability ([15]; first compound 0.03162 µM): 0.878
relative viability ([15]; first compound 0.1 µM): 0.556
relative viability ([15]; first compound 0.3162 µM): 0.446
relative viability ([15]; first compound 1 µM): 0.298
relative viability ([16]; first compound 0.01 µM): 0.797
relative viability ([16]; first compound 0.03162 µM): 0.804
relative viability ([16]; first compound 0.1 µM): 0.919
relative viability ([16]; first compound 0.3162 µM): 0.705
relative viability ([16]; first compound 1 µM): 0.862
relative viability ([17]; first compound 0.01 µM): 0.851
relative viability ([17]; first compound 0.03162 µM): 0.892
relative viability ([17]; first compound 0.1 µM): 0.772
relative viability ([17]; first compound 0.3162 µM): 0.687
relative viability ([17]; first compound 1 µM): 0.767
relative viability ([18]; first compound 0.01 µM): 0.848
relative viability ([18]; first compound 0.03162 µM): 0.925
relative viability ([18]; first compound 0.1 µM): 0.932
relative viability ([18]; first compound 0.3162 µM): 0.662
relative viability ([18]; first compound 1 µM): 0.357
relative viability ([19]; first compound 0.01 µM): 0.843
relative viability ([19]; first compound 0.03162 µM): 0.963
relative viability ([19]; first compound 0.1 µM): 1.05
relative viability ([19]; first compound 0.3162 µM): 0.976
relative viability ([19]; first compound 1 µM): 0.746
